According to patent publication US20260262691A1, “USE OF VANILLYL ETHERS TO MODIFY FLAVOR” (Firmenich Incorporated, priority 2023, published 2026):

Key:
[1] = Sensory panel rating of bitterness and astringency of liquid pea protein concentrate with vanillyl ethers; type: in vivo; settings: pea protein 3 percent by weight in water, without sugar; vanillyl ether 0.5 ppm; sensory panelists, scale from 0 to 10
Method: Liquid pea protein concentrate compositions were prepared (3 percent by weight in water) without sugar added. Control and test samples were prepared. To two test samples vanillyl ethyl ether (VEE) and vanillyl butyl ether (VBE) were added, respectively, at a concentration of 0.5 ppm. The control and test samples were evaluated by sensory panelists to rate the bitterness and astringency of the control sample and the two test samples on a scale from 0 to 10. Table 2 reports the mean difference between the bitterness and astringency scores between the control sample and each of the two test samples.

[2] = Sensory panel rating of characteristics of lemon tea beverage with vanillyl ethers; type: in vivo; settings: lemon tea beverage with Stevia sweetener, VEE 0.5 ppm (phloretin 8 ppm where combined), scale from 0 to 10, higher = more intense
Method: Samples of a lemon tea beverage were prepared.
Two test samples were prepared by adding (a) vanillyl ethyl ether (VEE) at a concentration of 0.5 ppm, and (b) vanillyl ethyl ether (VEE) at a concentration of 0.5 ppm and phloretin at a concentration of 8 ppm. The control and test samples were evaluated by sensory panelists to rate various characteristics of the control sample and the two test samples on a scale from 0 to 10.

## CCCCOCc1ccc(O)c(OC)c1 [VBE, 4-(butoxymethyl)-2-methoxyphenol]
[1]
  Astringency: mean difference between scores of control sample and test sample: −2.2
  Bitterness: mean difference between scores of control sample and test sample: −1.0

## CCOCc1ccc(O)c(OC)c1 [VEE, 4-(ethoxymethyl)-2-methoxyphenol]
[2]; control 2.9
  Off Note Intensity (mean score): 2.4
[2]; control 3.0
  Astringency (mean score): 2.1
[2]; control 3.1
  Mouthfeel (mean score): 3.5
[2]; control 3.8
  Bitterness (mean score): 2.7
[2]; control 4.5
  Unfront Sweetness (mean score): 4.7
[2]; control 4.6
  Lemon Flavor (mean score): 4.8
[2]; control 4.9
  Lingering Sweetness (mean score): 4.0
[2]; control 5.4
  Peak Sweetness (mean score): 5.4
[1]
  Astringency: mean difference between scores of control sample and test sample: −1.5
  Bitterness: mean difference between scores of control sample and test sample: −0.5
